Laboratory results from PMC7748285, “A small molecule that mitigates bacterial infection disrupts Gram-negative cell membranes and is inhibited by cholesterol and neutral lipids” (PLoS Pathogens, 2020).

Biological target: T1, AcrB (Escherichia coli, UniProt P31224)
T1 construct: 4·His tag at the C-terminus
Assay: isothermal titration calorimetry (ITC) with purified AcrB, […]°C
Type: binding

T1 sequence (P31224 whole entry): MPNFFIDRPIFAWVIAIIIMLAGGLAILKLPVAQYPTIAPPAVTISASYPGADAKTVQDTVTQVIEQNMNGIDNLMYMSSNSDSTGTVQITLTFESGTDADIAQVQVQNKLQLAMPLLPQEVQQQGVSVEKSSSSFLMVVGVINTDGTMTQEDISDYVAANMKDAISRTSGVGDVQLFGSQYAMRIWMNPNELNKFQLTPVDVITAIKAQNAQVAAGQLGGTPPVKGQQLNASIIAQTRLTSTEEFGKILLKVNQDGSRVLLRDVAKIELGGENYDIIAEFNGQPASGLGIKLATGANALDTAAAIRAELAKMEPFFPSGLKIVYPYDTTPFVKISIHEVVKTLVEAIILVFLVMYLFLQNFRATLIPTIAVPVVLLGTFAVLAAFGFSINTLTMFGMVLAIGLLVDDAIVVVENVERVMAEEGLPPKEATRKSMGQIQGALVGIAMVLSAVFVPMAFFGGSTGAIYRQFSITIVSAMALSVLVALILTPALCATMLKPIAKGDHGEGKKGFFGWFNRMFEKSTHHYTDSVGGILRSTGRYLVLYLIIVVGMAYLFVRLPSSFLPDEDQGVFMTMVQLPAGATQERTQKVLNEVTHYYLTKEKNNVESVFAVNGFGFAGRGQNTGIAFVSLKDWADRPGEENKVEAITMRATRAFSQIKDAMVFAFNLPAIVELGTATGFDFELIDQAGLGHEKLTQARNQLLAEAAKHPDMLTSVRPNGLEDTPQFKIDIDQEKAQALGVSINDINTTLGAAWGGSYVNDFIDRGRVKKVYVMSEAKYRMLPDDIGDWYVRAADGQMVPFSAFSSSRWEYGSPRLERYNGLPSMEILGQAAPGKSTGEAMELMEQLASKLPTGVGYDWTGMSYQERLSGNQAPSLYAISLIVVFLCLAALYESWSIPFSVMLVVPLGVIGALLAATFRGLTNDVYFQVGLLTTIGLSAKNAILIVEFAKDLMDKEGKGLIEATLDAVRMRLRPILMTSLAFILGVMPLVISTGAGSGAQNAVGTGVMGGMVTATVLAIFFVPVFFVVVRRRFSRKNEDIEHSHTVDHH

`OC(COc1ccc(C23CC4CC(CC(C4)C2)C3)cc1)CN1CCCCC1` (stereo not shown) [JD1] gave a Kd of 520 nM.
